Experimental data published in patent US12702667B2, “Focal adhesion kinase inhibitor as a therapeutic agent in diabetes” (University of Pittsburgh—Of the Commonwealth System of …, priority 2017, dated 2026).
“Also recorded” adds a separate entry of the source.

Columns and labels:
pancreatic acinar cells = experiment: Acinar lineage tracing (tomato-red label, immunofluorescence) in E1aCreERT2;R26-CAG^Tomato mice treated with FAKi; type: in vivo
Source text: Rosa26^CAGTomato (B6.Cg-Gt(Rosa)26Sortm9(CAG-tdTomato)Hze) (Madisen et al., 2010), FAK^fl/fl (Cai et al., 2012), and wild type C57bl/6 mice were purchased from The Jackson Laboratory (Bar Harbor, ME). PdxCre (Criscimanna et al., 2011; Hingorani et al., 2003) mice were obtained from the Mouse Models of Human Cancer Consortium. The E1aCreERT2 strain (Criscimanna et al., 2014; Criscimanna et al., 2011) was generated as previously described (Ji, B. et al., Robust acinar cell transgene expression of CreErT via BAC recombineering, Genesis, 46, 390-395et al (2008)). The FAK-floxed strain (B6; 129X1-Ptk2tm1Lfr/Mmucd) was obtained from the Mutant Mouse Regional Resource Centers (MMRRC).
Immunofluorescence Analysis: Tissue processing, immunostaining, and quantification analysis were performed as previously described (Criscimanna et al., 2011; incorporated by reference in its entirety herein). Imaging was performed using either ZEISS Axiolmager.Z1 or ZEISS LSM 710 microscopes.
Tamoxifen treatment: E1aCreERT;R26-CAG^Tomato mice were injected intraperitoneally with 2 mg tamoxifen on two consecutive days.
(§1) FAKi treatment: FAKi (PF562271; 50 mg/kg) was given orally to mice twice a day for 3 weeks.
Cre-recombinase activity was specifically targeted to the pancreatic acinar cells and their potential progenies. […] The mouse strains are E1aCreERT2;R26-CAG^Tomato, created by crossing the E1aCreERT2 into R26^Tomato mice. Pancreatic acinar cells are exclusively tomato-positive. Mice were treated with PF562271 FAKi. The indicated area in FIG. 2B highlights tomato-negative endocrine islet of Langerhans.

[1] = system: STZ-treated E1aCreERT2; R26^Tomato mice; experiment: Induced diabetes mouse model (streptozotocin), blood glucose and islet immunostaining after FAKi treatment; type: in vivo; conditions: for acinar-derived, insulin-producing cells among beta cells that survived STZ treatment: 7 weeks after STZ treatment and 3 weeks after FAKi treatment
Procedure: as §1
E1aCreERT2; R26^Tomato mice were treated with streptozotocin (STZ), a widely used compound that kills β-cells and, thus, induces diabetes in mice. […] Thus, in the DMSO-treated cohort, recovery was detected in 3/10 mice. […]
The mice were treated for two additional weeks following blood glucose normalization. The bar embedded in the graph of FIG. 5 indicates the duration of FAKi treatment. […] FAKi (50 mg/kg) was given orally to mice twice a day for 3 weeks.

`CN(c1ncccc1CNc1nc(Nc2ccc3c(c2)CC(=O)N3)ncc1C(F)(F)F)S(C)(=O)=O.O=S(=O)(O)c1ccccc1` [PF562271] was tested, and the “conversion of acinar cells into insulin-producing cells (tomato-red labeled insulin-expressing cells)” value (pancreatic acinar cells; 50 mg/kg orally twice a day for three weeks) was “induces conversion of acinar cells into insulin-producing cells”, the “Glut2 expression of the acinar-derived insulin-positive cells” value (pancreatic acinar cells; FAKi treated) was “also expressed Glut2” and the “amylase expression of the acinar-derived insulin-positive cells” value (pancreatic acinar cells; treatment for three weeks) was “no longer express amylase; also recorded: no longer expressed amylase”. The “location of the acinar-derived insulin-positive cells” value (pancreatic acinar cells; treatment for three weeks) was “embedded within preexisting islets”, the “acinar-derived, insulin-producing cells among beta cells that survived STZ treatment” value [1] was “could be detected among pre-existing beta-cells” and the “acinar-derived, insulin-producing cells among beta cells that survived STZ treatment” value ([1]; listed as FAKi) was “could be detected among pre-existing beta cells”. For the same compound, the “mice whose blood glucose levels decreased to normal levels” value ([1]; STZ-treated mice, 50 mg/kg orally twice a day for 3 weeks, DMSO cohort recovery 3/10) was 9/10, the “blood glucose after FAKi treatment ceased” value ([1]; STZ-treated mice, after 3 weeks of 50 mg/kg orally twice a day) was “remained at normal levels up to a month” and the blood glucose ([1]; STZ-treated mice, one week after FAKi treatment (mice treated for 3 weeks)) was “decrease in blood glucose to normal levels”.
